Like-named read-outs stand apart in the source and are kept apart here.

The source of these data is article PMC3628895, “Cloning, expression and characterization of an ethanol tolerant GH3 β-glucosidase from Myceliophthora thermophila” (PeerJ, 2013).

One series concerns the target T1, MtBgl3a (Thermothelomyces thermophilus, UniProt G2QDN2).
T1 construct: gene MYCTH_66804
T1 sequence (G2QDN2 18-733): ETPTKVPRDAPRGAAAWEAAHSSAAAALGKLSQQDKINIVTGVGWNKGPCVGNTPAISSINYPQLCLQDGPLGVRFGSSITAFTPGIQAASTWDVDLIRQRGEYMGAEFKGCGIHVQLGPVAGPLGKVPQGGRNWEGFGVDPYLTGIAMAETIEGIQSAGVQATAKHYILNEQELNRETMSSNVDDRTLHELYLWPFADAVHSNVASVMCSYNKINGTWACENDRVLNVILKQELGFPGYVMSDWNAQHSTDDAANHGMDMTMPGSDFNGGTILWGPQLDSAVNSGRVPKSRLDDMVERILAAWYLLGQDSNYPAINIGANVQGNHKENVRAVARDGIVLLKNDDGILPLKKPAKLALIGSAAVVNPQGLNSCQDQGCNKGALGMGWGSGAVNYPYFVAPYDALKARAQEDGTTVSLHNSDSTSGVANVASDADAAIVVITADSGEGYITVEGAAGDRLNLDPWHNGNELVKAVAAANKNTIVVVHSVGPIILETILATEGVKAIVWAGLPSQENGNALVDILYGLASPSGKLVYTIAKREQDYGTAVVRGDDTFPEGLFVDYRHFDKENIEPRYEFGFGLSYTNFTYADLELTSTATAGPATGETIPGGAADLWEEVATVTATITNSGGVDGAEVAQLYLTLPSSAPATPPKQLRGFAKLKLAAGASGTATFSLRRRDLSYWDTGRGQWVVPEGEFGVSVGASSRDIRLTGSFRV
Nature of the series: p-nitrophenol release, absorbance […] nm; Michaelis-Menten fit (GraFit). The format is biochemical.

Substrate in the series “purified protein”: O=[N+]([O-])c1ccc(O[C@@H]2O[C@H](CO)[C@@H](O)[C@H](O)[C@H]2O)cc1
Nature of the series: purified protein. The following applies: 100 mM citrate-phosphate pH 5.0, 40 °C.

[1] abbreviates: competitive, substrate p-β-NPG, pH 5.0 citrate-phosphate.

As usually defined, the Ki is a measure of affinity in units of concentration, obtained from inhibition or displacement. A low value points to higher affinity. The molecule `O=C(O)[C@H](O)[C@@H](O)[C@H](O)[C@H](O)CO` [D-gluconic acid] gave an inhibitory constant (Ki) at MtBgl3a of 22 ± 2 µM.
Take `OC[C@H]1OC(O)[C@H](O)[C@@H](O)[C@@H]1O` (stereo partly drawn) [D-glucose]: on MtBgl3a (setting [1]), the affinity, expressed as Ki, was 282 ± 100 µM.
The same measure, in the same setting: for `OC1OC[C@@H](O)[C@H](O)[C@H]1O` (stereo partly drawn) [D-xylose] the value was 30 ± 5 µM.

B1: MtBgl3a (Thermothelomyces thermophilus ATCC 42464) (protein)
chain: T1 sequence (G2QDN2 18-733)
For orientation: Km means the substrate concentration at which the rate is half of its maximum. As to B1, the Km in “purified protein” was 390 ± 120 µM.
